Assay [1] deals with A. ferrooxidans carboxysomal form IA^C rubisco with N472H in the large subunit (Acidithiobacillus ferrooxidans ATCC23270).
The target in assay [2] is A. ferrooxidans carboxysomal form IA^C rubisco with the last three residues of the large subunit changed from VNR to AHK (Acidithiobacillus ferrooxidans ATCC23270).
Assay [3] concerns the target T1, HnLS (form IA^C carboxysomal rubisco) (Halothiobacillus neapolitanus, UniProt O85040).
T1 construct: gene cbbL; recombinant E. coli BL21(DE3), pET30bHnLS (NdeI/HindIII); large and small subunits; anion exchange and size exclusion
In words: inhibited ECM-CABP (ECMC) complex, reactivation by CbbQO activase, coupled spectrophotometric rubisco assay. It is filed as biochemical. Conditions: 20 mM NaHCO3, Mg2+, 25 °C; PEG 3350; active site, tight-binding transition-state analog.

In assay [4] the target is T2, AfL2S2 (form IA^C carboxysomal rubisco) (Acidithiobacillus ferrooxidans, UniProt B7JB30, V471A/N472H/R473K).
T2 construct: gene cbbL1; recombinant E. coli BL21(DE3); large and small subunits; anion exchange and size exclusion
The assay is described as above. It is filed as biochemical. Conditions: 20 mM NaHCO3, Mg2+, 25 °C; PEG 3350; active site, tight-binding transition-state analog; printed as VNR C terminus substituted with AHK.

The target of assay [5] is T3, AfL2S2 (form IA^C carboxysomal rubisco) (Acidithiobacillus ferrooxidans, UniProt B7JB30).
T3 construct: gene cbbL1; recombinant E. coli BL21(DE3); large and small subunits; anion exchange and size exclusion
The description is as above. It is filed as biochemical. Conditions: 20 mM NaHCO3, Mg2+, 25 °C; PEG 3350; active site, tight-binding transition-state analog.

Assay [6] has as its target T4, AfL2S2 (form IA^C carboxysomal rubisco) (Acidithiobacillus ferrooxidans, UniProt B7JB30, N472H).
T4 construct: gene cbbL1; recombinant E. coli BL21(DE3); large and small subunits; anion exchange and size exclusion
Described as above. It is filed as biochemical. Conditions: 20 mM NaHCO3, Mg2+, 25 °C; PEG 3350; active site, tight-binding transition-state analog.

Assay [7] concerns the target T5, AfQ1O1 (form IA^Q-associated CbbQO rubisco activase) (Acidithiobacillus ferrooxidans, UniProt B7JA26).
T5 construct: gene cbbQ-1; recombinant E. coli BL21(DE3), pHueAfCbbQ1 and pBad33UbAfcbbO1; CbbQ hexamer with CbbO; with CbbO protein (von Willebrand factor A domain, rubisco activase adaptor)
T5 sequence (B7JA26 1-267): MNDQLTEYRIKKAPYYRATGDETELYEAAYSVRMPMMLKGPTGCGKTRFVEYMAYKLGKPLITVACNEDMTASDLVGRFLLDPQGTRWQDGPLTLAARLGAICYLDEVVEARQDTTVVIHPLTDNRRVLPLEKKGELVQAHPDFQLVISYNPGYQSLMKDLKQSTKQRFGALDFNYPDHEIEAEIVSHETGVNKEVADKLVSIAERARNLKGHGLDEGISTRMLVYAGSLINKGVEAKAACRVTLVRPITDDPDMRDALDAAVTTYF
T5 sequence (B7JA27 1-772 partner): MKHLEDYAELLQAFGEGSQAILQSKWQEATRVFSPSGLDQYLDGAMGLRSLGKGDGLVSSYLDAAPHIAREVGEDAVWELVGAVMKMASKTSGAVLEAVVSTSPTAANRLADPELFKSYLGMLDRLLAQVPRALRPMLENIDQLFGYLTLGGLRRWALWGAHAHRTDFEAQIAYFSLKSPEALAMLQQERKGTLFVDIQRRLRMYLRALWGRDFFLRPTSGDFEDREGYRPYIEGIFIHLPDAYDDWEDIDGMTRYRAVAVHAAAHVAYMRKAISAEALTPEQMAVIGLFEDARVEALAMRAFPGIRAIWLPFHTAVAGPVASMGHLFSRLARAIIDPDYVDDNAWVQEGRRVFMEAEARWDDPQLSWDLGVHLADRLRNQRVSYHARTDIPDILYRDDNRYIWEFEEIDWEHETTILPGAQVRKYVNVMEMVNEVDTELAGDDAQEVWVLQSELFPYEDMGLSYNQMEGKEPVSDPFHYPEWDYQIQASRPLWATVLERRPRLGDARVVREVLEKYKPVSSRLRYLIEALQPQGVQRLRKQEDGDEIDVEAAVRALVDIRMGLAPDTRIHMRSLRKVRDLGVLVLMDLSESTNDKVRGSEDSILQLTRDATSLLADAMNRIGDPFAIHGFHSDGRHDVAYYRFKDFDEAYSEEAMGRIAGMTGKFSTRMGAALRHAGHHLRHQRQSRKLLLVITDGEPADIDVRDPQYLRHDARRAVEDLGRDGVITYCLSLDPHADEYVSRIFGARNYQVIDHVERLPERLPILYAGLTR
In words: ATPase, coupled spectrophotometric assay. It is filed as biochemical. Conditions: 0.27 µM oligomer, 25 °C.

In assay [8] the target is T6, AfQ3O3 (carboxysomal CbbQO rubisco activase) (Acidithiobacillus ferrooxidans, UniProt B7JB17).
T6 construct: gene p30; recombinant E. coli BL21(DE3), pHue and pBad33 (ubiquitin-type) vectors; CbbQ hexamer with CbbO; with CbbO protein (von Willebrand factor A domain, rubisco activase adaptor)
The assay is described as follows: ATPase, coupled spectrophotometric assay. It is filed as biochemical. Conditions: 0.27 µM oligomer, 25 °C.

Assay [9] concerns the target A. ferrooxidans carboxysomal form IA^C rubisco with N472H in the large subunit (Acidithiobacillus ferrooxidans ATCC23270). This is another data set of the same source.
In assay [10] the target is A. ferrooxidans carboxysomal form IA^C rubisco with the last three residues of the large subunit changed from VNR to AHK (Acidithiobacillus ferrooxidans ATCC23270). The source holds these as a separate data set.
The target of assay [11] is T2, AfL2S2 (form IA^C carboxysomal rubisco). The assay is described as follows: spontaneous RuBP release from ER complex. The class given is biochemical. Conditions: apoenzyme with RuBP; 25 °C; active site; printed as VNR C terminus substituted with AHK.
The target in the next assay is T7, SynLS (form IB rubisco) (Synechococcus elongatus, UniProt P00880).
T7 construct: gene cbbL; large and small subunits
In words: RuBP release rate from apo-rubisco-RuBP (ER) complex, carboxylation time course. Conditions: apoenzyme with 0.4 mM RuBP; assay 50 mM NaHCO3, 1 mM RuBP, 25 °C; active site. It is filed as biochemical.

The target of assay [12] is T3, AfL2S2 (form IA^C carboxysomal rubisco). The assay is described as above. The class given is biochemical. Conditions: apoenzyme with 0.4 mM RuBP; assay 50 mM NaHCO3, 1 mM RuBP, 25 °C; active site.
The target of assay [13] is T1, HnLS (form IA^C carboxysomal rubisco). Described as above. Conditions: apoenzyme with 0.4 mM RuBP; assay 50 mM NaHCO3, 1 mM RuBP, 25 °C; active site. It is filed as biochemical.
The target of assay [14] is T8, AfL1S1 (form IA^Q rubisco) (Acidithiobacillus ferrooxidans, UniProt B7JA24).
T8 construct: gene cbbL2; recombinant E. coli BL21(DE3); large and small subunits; anion exchange and size exclusion
The description is as above. It is filed as biochemical. Conditions: apoenzyme with 0.4 mM RuBP; assay 50 mM NaHCO3, 1 mM RuBP, 25 °C; active site.

The target in assay [15] is T4, AfL2S2 (form IA^C carboxysomal rubisco). In words: spontaneous RuBP release from ER complex. Conditions: apoenzyme with RuBP; 25 °C; active site. It is filed as biochemical.

T2 sequence (B7JB30 whole entry V471A/N472H/R473K): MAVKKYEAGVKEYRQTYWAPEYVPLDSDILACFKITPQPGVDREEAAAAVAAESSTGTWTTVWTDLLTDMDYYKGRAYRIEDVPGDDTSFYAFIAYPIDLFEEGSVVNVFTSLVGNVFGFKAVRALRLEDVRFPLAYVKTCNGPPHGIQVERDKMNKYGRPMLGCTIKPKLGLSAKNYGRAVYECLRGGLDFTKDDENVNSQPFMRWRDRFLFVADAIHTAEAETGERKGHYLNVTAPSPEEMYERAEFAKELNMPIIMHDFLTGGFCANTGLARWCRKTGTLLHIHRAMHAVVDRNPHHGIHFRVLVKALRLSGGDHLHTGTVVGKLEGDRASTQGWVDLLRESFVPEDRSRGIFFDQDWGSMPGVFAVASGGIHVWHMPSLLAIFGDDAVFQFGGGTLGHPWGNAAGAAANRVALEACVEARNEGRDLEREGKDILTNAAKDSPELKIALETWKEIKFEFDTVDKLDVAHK
T2 sequence (B7JB29 entry or part of it, stated change not applied, further chain): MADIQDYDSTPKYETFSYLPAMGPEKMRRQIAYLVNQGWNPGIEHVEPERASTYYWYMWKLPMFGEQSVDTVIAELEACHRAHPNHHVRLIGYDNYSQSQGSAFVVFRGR
T4 sequence (B7JB30 whole entry N472H): as the sequence (B7JB30 whole entry V471A/N472H/R473K) above, with A471V, K473R counted along it
T4 sequence (B7JB29 entry or part of it, stated change not applied, further chain): as the sequence (B7JB29 entry or part of it, stated change not applied, further chain) above
T3 sequence (B7JB30 whole entry): as the sequence (B7JB30 whole entry V471A/N472H/R473K) above, with A471V, H472N, K473R counted along it
T3 sequence (B7JB29 1-110 partner): as the sequence (B7JB29 entry or part of it, stated change not applied, further chain) above
T1 sequence (O85040 whole entry): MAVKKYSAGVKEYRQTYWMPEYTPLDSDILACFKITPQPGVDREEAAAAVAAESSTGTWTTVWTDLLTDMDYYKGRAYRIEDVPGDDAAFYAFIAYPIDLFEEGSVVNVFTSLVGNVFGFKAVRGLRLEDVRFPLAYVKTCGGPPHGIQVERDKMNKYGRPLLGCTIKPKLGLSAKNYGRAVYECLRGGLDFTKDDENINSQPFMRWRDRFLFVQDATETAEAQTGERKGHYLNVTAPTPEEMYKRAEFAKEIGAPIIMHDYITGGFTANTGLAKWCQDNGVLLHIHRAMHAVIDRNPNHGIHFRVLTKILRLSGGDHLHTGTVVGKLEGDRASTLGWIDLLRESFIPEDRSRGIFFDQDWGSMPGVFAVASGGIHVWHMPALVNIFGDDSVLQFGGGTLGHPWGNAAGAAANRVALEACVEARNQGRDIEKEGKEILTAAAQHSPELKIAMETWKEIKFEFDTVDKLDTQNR
T1 sequence (P45686 whole entry partner): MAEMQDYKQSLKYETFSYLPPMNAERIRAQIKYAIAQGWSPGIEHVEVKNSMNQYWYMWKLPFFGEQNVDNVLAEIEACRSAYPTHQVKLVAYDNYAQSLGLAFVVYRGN
T8 sequence (B7JA24 whole entry): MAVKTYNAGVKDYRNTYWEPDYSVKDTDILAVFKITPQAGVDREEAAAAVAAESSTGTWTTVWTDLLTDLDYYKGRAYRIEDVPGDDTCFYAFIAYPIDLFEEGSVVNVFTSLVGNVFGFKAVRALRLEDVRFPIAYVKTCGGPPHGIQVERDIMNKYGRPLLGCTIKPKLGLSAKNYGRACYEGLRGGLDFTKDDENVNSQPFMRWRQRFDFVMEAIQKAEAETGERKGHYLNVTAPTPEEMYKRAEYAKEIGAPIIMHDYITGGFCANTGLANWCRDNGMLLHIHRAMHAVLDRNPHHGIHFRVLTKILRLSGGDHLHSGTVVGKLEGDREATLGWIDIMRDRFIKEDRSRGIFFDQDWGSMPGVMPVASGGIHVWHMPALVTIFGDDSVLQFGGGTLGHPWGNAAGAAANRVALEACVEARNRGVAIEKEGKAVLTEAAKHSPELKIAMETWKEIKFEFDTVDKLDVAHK
T8 sequence (B7JA25 1-118 partner): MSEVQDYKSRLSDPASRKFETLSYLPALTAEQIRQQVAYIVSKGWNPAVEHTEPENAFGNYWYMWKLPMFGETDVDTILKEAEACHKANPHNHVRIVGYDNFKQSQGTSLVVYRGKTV
T6 sequence (B7JB16 entry or part of it): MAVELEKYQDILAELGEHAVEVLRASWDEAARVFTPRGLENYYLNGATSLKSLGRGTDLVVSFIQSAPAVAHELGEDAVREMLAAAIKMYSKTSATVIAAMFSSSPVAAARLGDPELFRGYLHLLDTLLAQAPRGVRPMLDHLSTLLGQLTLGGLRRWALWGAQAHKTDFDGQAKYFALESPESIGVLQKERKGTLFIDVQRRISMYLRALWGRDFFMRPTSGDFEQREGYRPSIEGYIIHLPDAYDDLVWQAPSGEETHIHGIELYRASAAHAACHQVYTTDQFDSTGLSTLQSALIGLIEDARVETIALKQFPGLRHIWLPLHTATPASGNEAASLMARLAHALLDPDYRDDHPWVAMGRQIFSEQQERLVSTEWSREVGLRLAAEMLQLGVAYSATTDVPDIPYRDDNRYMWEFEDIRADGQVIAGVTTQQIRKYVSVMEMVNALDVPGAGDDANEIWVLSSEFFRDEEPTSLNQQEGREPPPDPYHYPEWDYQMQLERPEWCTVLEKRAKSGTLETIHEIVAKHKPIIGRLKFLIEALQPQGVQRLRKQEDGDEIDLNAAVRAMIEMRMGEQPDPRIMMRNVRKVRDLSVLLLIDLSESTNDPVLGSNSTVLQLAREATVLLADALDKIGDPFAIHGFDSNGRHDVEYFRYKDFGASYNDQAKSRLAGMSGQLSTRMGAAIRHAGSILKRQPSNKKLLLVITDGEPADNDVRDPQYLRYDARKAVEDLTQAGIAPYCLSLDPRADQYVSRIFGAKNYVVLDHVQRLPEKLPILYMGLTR
T6 sequence (B7JB17 entry or part of it): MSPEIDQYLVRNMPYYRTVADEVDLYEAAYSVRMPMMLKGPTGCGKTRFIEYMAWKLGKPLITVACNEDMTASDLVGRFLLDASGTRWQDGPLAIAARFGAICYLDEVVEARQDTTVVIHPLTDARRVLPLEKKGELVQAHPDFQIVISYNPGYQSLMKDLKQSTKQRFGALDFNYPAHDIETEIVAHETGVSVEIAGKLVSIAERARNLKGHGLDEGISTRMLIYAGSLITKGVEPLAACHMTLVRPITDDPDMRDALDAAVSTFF

On to “A. ferrooxidans CbbQ1-CbbO1 rubisco activase complex (form IA^Q associated)”, for which the Rca activity: activation of CABP-inhibited rubisco (ECMC), coupled spectrophotometric rubisco assay, 5% v/v PEG, 20 mM NaHCO3; against wildtype AfL2S2 in [1] and in assay [2] was 6 fold throughout.

Take `O=C(O)[C@@](O)(COP(=O)(O)O)[C@H](O)[C@H](O)COP(=O)(O)O` (mixture of isomers) [carboxy-arabinitol 1,5-bisphosphate]: the “inhibited ECM-CABP (ECMC) complex, reactivation by CbbQO activase, coupled spect” value is on record as “HnQO was able to remove CABP from its cognate form IA^C rubisco HnLS” in assay [3], “mutation at the C terminus of AfL2S2 enhances activation of ECMC complexes by Q1O1” in [4], “ability to remove the transition state analog CABP from the A. ferrooxidans form IA^C (AfL2S2) holoenzyme” in [5] and “mutation at the C terminus of AfL2S2 enhances activation of ECMC complexes by Q1O1” in assay [6].

Take `Nc1ncnc2c1ncn2[C@@H]1O[C@H](COP(=O)(O)OP(=O)(O)OP(=O)(O)O)[C@@H](O)[C@H]1O` [ATP]: the “ATPase, coupled spectrophotometric assay” value in assay [7] and in [8] was “The ATPase activity of the purified AfQ3O3 complex was similar to that of the AfQ1O1” in each case.

On to “A. ferrooxidans CbbQ3-CbbO3 rubisco activase complex (carboxysomal, form IA^C associated)”, for which the figures for the Rca activity: activation of CABP-inhibited rubisco (ECMC), coupled spectrophotometric rubisco assay, 13% v/v PEG, 20 mM NaHCO3; against wildtype AfL2S2 in [9] and in assay [10] were 30 % increase and 60 % reduction, respectively.

Take `O=C(COP(=O)(O)O)[C@H](O)[C@H](O)COP(=O)(O)O` [ribulose 1,5-bisphosphate]: the “spontaneous RuBP release from ER complex” value in assay [11] was “displayed similar carboxylation kinetics and spontaneous RuBP release under our assay conditions”; in [15] it was “displayed similar carboxylation kinetics and spontaneous RuBP release under our assay conditions”. Further, the RuBP release rate result on SynLS (form IB rubisco) was “the very loose RuBP-binding phenotype of the cyanobacterial form IB SynLS rubisco”; in assay [12] it was “The RuBP release rate was derived from the ER time courses”; in [13] it was “The RuBP release rate was derived from the ER time courses”; in assay [14], “(AfL1S1) formed a stable binary complex with RuBP and had the slowest inhibitor release rate”.

Values taken from article PMC8718961, “The CbbQO-type rubisco activases encoded in carboxysome gene clusters can activate carboxysomal form IA rubiscos” (The Journal of Biological Chemistry, 2021).
